As usually defined, the logP is the decadic logarithm of the partition coefficient of the neutral form, usually between octanol and water. As a reminder, the IC50 is the point on the concentration scale where inhibition reaches its midpoint. A word on the Cmax: it is the highest concentration seen after dosing. Broadly, the solubility is the dissolved amount per volume that the medium holds. Low values mean a poorly soluble substance, high ones a readily soluble substance. As a reminder, the EC50 is the concentration giving half of the maximal effect. Low values mean higher potency in that assay, high ones lower potency in that assay.

From ChEMBL document CHEMBL5241068, “Biguanides: Species with versatile therapeutic applications” (Eur J Med Chem, 2021) come the findings set out here.

Data set [1] can be described thus: Lipophilicity, logP of the compound. The data set is classed as physicochemical. As to conditions: octanol/water.
In a further data set the test system is A2780. As to the kind of experiment: Antiproliferative activity against human A2780 cells. The data set is classed as functional, cell-based.
A short description of data set [2]: Elimination half life in mouse at 1 mg/kg, po. The data set is classed as ADME, organism-based. As to conditions: in vivo, read-out: beta t1/2 (converted).
Data set [3] can be described thus: Cmax in mouse at 1 mg/kg, po. It counts as ADME, organism-based. Also noted: dose 1 mg/kg, route po. The following applies: in vivo.
A further data set concerns Escherichia coli. As to the kind of experiment: Bactericidal activity against Escherichia coli assessed as time required to kill the bacteria at 95 uM. The data set is classed as functional.
Data set [4] is described as follows: Inhibition of Toxoplasma gondii DHFR.
A short description of data set [5]: Selectivity index, ratio of IC50 for rat liver DHFR to IC50 for Toxoplasma gondii DHFR.
Data set [6] is described as follows: Solubility of compound at pH 8. The data set is classed as physicochemical. The following applies: buffer.
The target in data set [7] is Replicase polyprotein 1ab (Severe acute respiratory syndrome coronavirus 2) (UniProt P0DTD1). As to the kind of experiment: Binding affinity to SARS CoV-2 3CL protease assessed as gibbs free energy change.
A short description of data set [8]: Inhibition of quorum sensing system in Chromobacterium violaceum CV12472.
A further data set has as its system MDA-MB-231. As to the kind of experiment: Antiproliferative activity against human MDA-MB-231 cells in presence of phenformin. It counts as functional, cell-based.
The next data set has as its system SK-OV-3. As to the kind of experiment: Antiproliferative activity against human SK-OV-3 cells incubated for 72 hrs by MTT assay. The data set is classed as functional, cell-based. As to conditions: SK-OV-3, 72 h. For orientation: Tetrazolium assays rely on reduction of a dye to a coloured formazan, in cell work by metabolically active cells.
The next data set has as its system T47D. As to the kind of experiment: Antiproliferative activity against human T47D cells in presence of phenformin. The data set is classed as functional, cell-based.
The test system of a further data set is IGROV-1. As to the kind of experiment: Antiproliferative activity against human IGROV-1 cells incubated for 72 hrs by MTT assay. It counts as functional, cell-based. As to conditions: IGROV-1, 72 h.
Another data set concerns FaDu. As to the kind of experiment: Anticancer activity against human FaDu cells. It counts as functional, cell-based.
The next data set concerns C6661. As to the kind of experiment: Anticancer activity against human C6661 cells. It counts as functional, cell-based.
Data set [9] is described as follows: Inhibition of Brugia malayi DHFR.

Each structure is given as a SMILES string.

In turn, `Clc1ccc(Nc2ccnc(Nc3ccc(Cl)cc3)n2)cc1` registered a logP in data set [1] of 5.5.

In the data set on A2780, `NC(N)=N/C(N)=N/CCOc1ccn(-c2ccc(Cl)cc2)n1` gave a half-maximal inhibitory concentration (IC50) of 6.9 µM.

Consider `CN(C)C(=N)N=C(N)N` [METFORMIN], for which, in data set [2], the half-life was 6 h. This compound also showed a Cmax in data set [3] of 2000 ng/mL.

For `C=CC(=O)OCCc1ccc(/N=C(N)/N=C(\N)Nc2ccc(Cl)cc2)cc1.Cl`, the Time in the data set on Escherichia coli is listed as 30 min.

`CC1(C)N=C(N)N=C(N)N1c1ccc(OCc2ccc(-c3ccccc3)cc2)cc1` returned an IC50 in data set [4] of 0.012 µM. The Ratio IC50 in data set [5] is 2.15.

`N=C(NCCCCCCCCCCCCNC(=N)Nc1ncc(Cl)cn1)Nc1ncc(Cl)cn1`: in [1], the logP was 5.5.

`Cl.N=C(N)NC(=N)N1CCOCC1` registered a solubility in [6] of 360 mg/mL. Also, in data set [7], the deltaG was -2.11 kcal/mol.

`N=C(N=C(N)N)N(Cc1ccccc1)c1ccccc1` displayed a half-inhibitory concentration (IC50) in [8] of 179 µM.

Consider `CN(C)C(=N)NC(=N)N` [METFORMIN], for which, in data set [7], the deltaG was -6.72 kcal/mol. Moreover, the IC50 stood at 4010 µM in the data set on MDA-MB-231, 150 µM in the data set with SK-OV-3, 9400 µM in the data set on T47D and 850 µM with IGROV-1.

Turning to `CCCC[C@@H](CC)CNC(=N)NC(=N)NCCCCCCNC(=N)NC(=N)NC[C@H](CC)CCCC`, the figures for the EC50 with FaDu and in the data set with C6661 were 1.8 µM and 2.6 µM, respectively.

With `NC(N)=N/C(N)=N/c1ccc(OCc2ccc(-c3ccccc3)cc2)cc1`, in data set [9], the IC50 was less than 5.83 µM.

As for `COc1cc(Cc2cnc(N)nc2N)cc(OC)c1OC` [TRIMETHOPRIM], in data set [9], the IC50 worked out at 12.9 µM.

Take `NC(N)=N/C(N)=N/Cc1ccco1`: the IC50 is 380 µM in the data set on SK-OV-3 and 150 µM in the data set with IGROV-1.

For `CCc1nc(N)nc(N)c1-c1ccc(Cl)cc1` [PYRIMETHAMINE], the IC50 in data set [9] stood at 20.1 µM.

Compound `NC(N)=N/C(N)=N/c1ccc(OCc2ccc(Cl)cc2Cl)cc1` showed an IC50 in data set [9] of 6.31 µM.

On to `N=C(N=C(N)N)N(c1ccccc1)c1ccc(N)cc1`, for which it took 120 µM to reach half-maximal inhibition in data set [8] (IC50).

Compound `N=C(NCCCCCCCCCCNC(=N)Nc1ncc(Cl)cn1)Nc1ncc(Cl)cn1` returned a logP in data set [1] of 5.5.

Compound `CC1(C)N=C(N)N=C(N)N1c1ccc(OCc2ccc(Cl)cc2Cl)cc1` gave an IC50 in data set [9] of 5.73 µM.

`NC(N)=N/C(N)=N/c1ccc(OCc2cccc(Cl)c2)cc1` yielded an IC50 in [9] of 16.7 µM.
